Measured values reported in US12448394B2, “Heterocyclic pyrazole derivatives as type III receptor tyrosine kinase inhibitors” (DEVELOPMENT CENTER FOR BIOTECHNOLOGY, priority 2019, dated 2025).

Key:
[1] = system: phosphorylation of FLT3 and its down-stream effector STAT5; test: Western blotting of p-FLT3 and p-STAT5 in MV4-11 cells; assay type: cell-based; conditions: Homo sapiens; at 30 nM treatment, 3 hours, FLT3-ITD positive MV4-11 leukemia cells; read-out: inhibition activity against phosphorylation of FLT3 and its down-stream effector STAT5
Summary of the method: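 MV4-11 cells held overnight in IMDM with 0.1% FBS, then 3 million cells treated with compound for 3 h. Whole lysates immunoblotted for p-FLT3 (Tyr-591), p-STAT5 (Tyr-694) and actin. Band intensities at 30 nM compared to DMSO control; % inhibition = (1 − relative intensity) × 100.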

PDGFRα kinase = molecular target: T1, PDGFRα kinase (Homo sapiens, UniProt P16234); test: PDGFRα kinase assay (AlphaScreen); assay type: biochemical; conditions: read-out: Ranking of IC50 values, PDGFRα
T1 construct: purchased SignalChem
Summary of the method: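 Recombinant PDGFRα (1.5 ng) phosphorylated biotinylated poly(Glu4:Tyr1) with 10 μM ATP in MOPS pH 7.0 with 10 mM MgCl2, 30 min at 30 °C, stopped with EDTA. Product detected by AlphaScreen; IC50 from serial dilutions run in duplicate.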

FLT3 kinase = molecular target: T2, FLT3 kinase (Homo sapiens, UniProt P36888); test: FLT3 kinase assay (AlphaScreen); assay type: biochemical; conditions: read-out: Ranking of IC50 values, FLT3
T2 construct: purchased SignalChem
T2 sequence (P36888 27-993): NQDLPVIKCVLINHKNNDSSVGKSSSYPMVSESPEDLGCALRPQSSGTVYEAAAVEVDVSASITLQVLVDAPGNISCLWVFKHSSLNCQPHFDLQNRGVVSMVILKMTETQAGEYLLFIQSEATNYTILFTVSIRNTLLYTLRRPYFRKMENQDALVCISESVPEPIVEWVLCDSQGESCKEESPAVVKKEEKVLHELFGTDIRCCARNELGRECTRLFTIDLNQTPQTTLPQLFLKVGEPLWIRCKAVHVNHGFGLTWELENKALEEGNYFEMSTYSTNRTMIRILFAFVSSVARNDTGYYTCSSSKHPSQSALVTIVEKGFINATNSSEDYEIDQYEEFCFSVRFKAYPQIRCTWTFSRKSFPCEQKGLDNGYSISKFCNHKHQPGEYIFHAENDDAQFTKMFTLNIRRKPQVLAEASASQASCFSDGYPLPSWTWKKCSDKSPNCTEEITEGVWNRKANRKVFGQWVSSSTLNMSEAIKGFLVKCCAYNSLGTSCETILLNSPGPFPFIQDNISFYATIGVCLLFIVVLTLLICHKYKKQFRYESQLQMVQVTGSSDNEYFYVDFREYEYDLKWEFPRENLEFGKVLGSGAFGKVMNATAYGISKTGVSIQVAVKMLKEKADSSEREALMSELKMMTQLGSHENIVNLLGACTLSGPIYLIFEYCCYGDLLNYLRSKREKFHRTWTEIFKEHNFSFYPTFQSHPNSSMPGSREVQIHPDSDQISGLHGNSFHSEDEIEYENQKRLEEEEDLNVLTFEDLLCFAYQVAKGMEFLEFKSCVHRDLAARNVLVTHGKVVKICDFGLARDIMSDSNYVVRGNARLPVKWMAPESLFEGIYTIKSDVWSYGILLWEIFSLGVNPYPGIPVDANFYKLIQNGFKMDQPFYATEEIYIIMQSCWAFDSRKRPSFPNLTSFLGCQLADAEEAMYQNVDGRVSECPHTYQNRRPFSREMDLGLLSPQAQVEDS
Summary of the method: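 Recombinant FLT3 (1.5 ng) phosphorylated biotinylated poly(Glu4:Tyr1) with 10 μM ATP in MOPS pH 7.0 buffer containing 10 mM MgCl2, 30 min at 30 °C, stopped with EDTA. Product detected by AlphaScreen; IC50 from duplicate serial dilutions.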

T1 sequence (P16234 24-1089): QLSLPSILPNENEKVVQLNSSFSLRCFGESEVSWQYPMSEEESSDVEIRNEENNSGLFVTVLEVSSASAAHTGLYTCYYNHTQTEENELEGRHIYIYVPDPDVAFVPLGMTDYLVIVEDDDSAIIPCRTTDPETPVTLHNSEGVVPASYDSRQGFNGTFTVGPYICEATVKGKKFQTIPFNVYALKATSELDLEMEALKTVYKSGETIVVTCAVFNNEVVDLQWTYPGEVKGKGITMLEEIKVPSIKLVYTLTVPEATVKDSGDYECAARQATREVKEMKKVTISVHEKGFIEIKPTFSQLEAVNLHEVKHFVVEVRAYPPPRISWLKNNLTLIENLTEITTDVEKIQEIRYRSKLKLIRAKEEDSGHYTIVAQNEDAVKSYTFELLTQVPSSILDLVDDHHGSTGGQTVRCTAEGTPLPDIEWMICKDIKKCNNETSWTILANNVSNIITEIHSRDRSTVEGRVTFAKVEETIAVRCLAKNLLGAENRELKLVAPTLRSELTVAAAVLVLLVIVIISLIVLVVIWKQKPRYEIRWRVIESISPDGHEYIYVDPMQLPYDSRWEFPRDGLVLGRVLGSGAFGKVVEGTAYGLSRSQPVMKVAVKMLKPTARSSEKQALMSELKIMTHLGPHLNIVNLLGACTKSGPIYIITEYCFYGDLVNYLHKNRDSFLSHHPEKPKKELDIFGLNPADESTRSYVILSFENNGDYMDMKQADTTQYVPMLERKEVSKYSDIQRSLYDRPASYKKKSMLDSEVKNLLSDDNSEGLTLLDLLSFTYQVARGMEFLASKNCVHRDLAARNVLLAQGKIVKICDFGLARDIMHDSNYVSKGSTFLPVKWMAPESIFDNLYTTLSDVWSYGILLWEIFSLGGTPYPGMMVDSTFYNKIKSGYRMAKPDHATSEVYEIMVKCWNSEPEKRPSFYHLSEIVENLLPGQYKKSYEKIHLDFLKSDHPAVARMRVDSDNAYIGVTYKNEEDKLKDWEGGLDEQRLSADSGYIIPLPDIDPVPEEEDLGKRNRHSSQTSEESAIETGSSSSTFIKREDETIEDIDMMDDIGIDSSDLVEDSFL

IC50 (PDGFRα kinase)	IC50 (FLT3 kinase)	Structure (SMILES)	inhibition at 0.03 µM [1]
1 to 10 nM		Cn1ncc2ccc(-c3n[nH]c4c3Cc3sc(-c5ccc(CN6CCNCC6=O)cc5)cc3-4)cc21 [Compound 101, 1-(4-(3-(1-methyl-1H-indazol-6-yl)-1,4-dihydro-thieno[2′,3′:4,5]cyclopenta [1,2-c]pyrazol-6-yl)benzyl)piperazin-2-one]	> 50%
1 to 10 nM		Nc1ccc(-c2cc3c(s2)Cc2c(-c4ccc5[nH]ncc5c4)n[nH]c2-3)cn1 [Compound 40, 5-(3-(1H-indazol-5-yl)-1,4-dihydrothieno [2′,3′:4,5]cyclopenta [1,2-c]pyrazol-6-yl) pyridin-2-amine]	> 50%
1 to 10 nM		Cc1ccc(-c2cc3c(s2)Cc2c(-c4ccc5[nH]ncc5c4)n[nH]c2-3)cn1 [Compound 36, 3-(1H-indazol-5-yl)-6-(6-methylpyridin-3-yl)-1,4-dihydrothieno[2′,3′:4,5] cyclopenta[1,2-c]pyrazole]	> 50%
1 to 10 nM	1 to 10 nM	Cn1nnc2ccc(-c3n[nH]c4c3Cc3sc(-c5ccc(CN6CCOCC6)cc5)cc3-4)cc21 [Compound 89, 4-(4-(3-(1-methyl-1H-benzo[d][1,2,3]triazol-6-yl)-1,4-dihydrothieno [2′,3′:4,5]cyclopenta [1,2-c]pyrazol-6-yl)benzyl)morpholine]	> 50%
100 to 300 nM	1 to 10 nM	CN(C)Cc1ccc(-c2cc3c(s2)Cc2c(-c4ccc5cnn(C)c5c4)n[nH]c2-3)cn1 [Compound 93, N,N-dimethyl-1-(5-(3-(1-methyl-1H-indazol-6-yl)-1,4-dihydrothieno [2′,3′:4,5]cyclopenta [1,2-c]pyrazol-6-yl)pyridin-2-yl)methanamine]	
100 to 300 nM	1 to 10 nM	Cn1ncc2ccc(-c3n[nH]c4c3Cc3sc(-c5ccc(CN6CCOCC6)cc5OC(F)(F)F)cc3-4)cc21 [Compound 90, 4-(4-(3-(1-methyl-1H-indazol-6-yl)-1,4-dihydro-thieno[2′,3′:4,5]cyclopenta [1,2-c]pyrazol-6-yl)-3-(trifluoromethoxy)benzyl) morpholine]	
10 to 30 nM		Cn1ncc2ccc(-c3n[nH]c4c3Cc3sc(-c5ccc(CN6CCOC6=O)cc5)cc3-4)cc21 [Compound 62, 3-(4-(3-(1-methyl-1H-indazol-6-yl)-1,4-dihydro-thieno[2′,3′:4,5]cyclopenta [1,2-c]pyrazol-6-yl)benzyl)oxazolidin-2-one]	> 50%
1 to 10 nM		Cc1ccc(-c2cc3c(s2)Cc2c(-c4ccc5cn[nH]c5c4)n[nH]c2-3)cn1 [Compound 30, 3-(1H-indazol-6-yl)-6-(6-methylpyridin-3-yl)-1,4-dihydrothieno[2′,3′:4,5] cyclopenta[1,2-c]pyrazole]	> 50%
1 to 10 nM	1 to 10 nM	Cc1n[nH]c2cc(-c3n[nH]c4c3Cc3sc(-c5ccc(CN6CCOCC6)cc5)cc3-4)ccc12 [Compound 81, 4-(4-(3-(3-methyl-1H-indazol-6-yl)-1,4-dihydro-thieno[2′,3′:4,5]cyclopenta [1,2-c]pyrazol-6-yl)benzyl)morpholine]	
1 to 10 nM	< 1 nM	CN1CCN(Cc2ccc(-c3cc4c(s3)Cc3c(-c5ccc6cn[nH]c6c5)n[nH]c3-4)cc2)CC1 [Compound 83, 3-(1H-indazol-6-yl)-6-(4-((4-methylpiperazin-1-yl)methyl)phenyl)-1,4-dihydrothieno[2′,3′:4,5] cyclopenta[1,2-c]pyrazole]	> 50%
100 to 300 nM	1 to 10 nM	Cn1ncc2ccc(-c3n[nH]c4c3Cc3sc(-c5ccc(N6CCOCC6)nc5)cc3-4)cc21 [Compound 82, 4-(5-(3-(1-methyl-1H-indazol-6-yl)-1,4-dihydro-thieno[2′,3′:4,5]cyclopenta [1,2-c]pyrazol-6-yl)pyridin-2-yl)morpholine]	

Further lines, the compound ahead of its results:

Structure (SMILES)	IC50 (PDGFRα kinase)	IC50 (FLT3 kinase)	inhibition at 0.03 µM [1]
Nc1ccc(-c2cc3c(s2)Cc2c(-c4ccc5cn[nH]c5c4)n[nH]c2-3)cn1 [Compound 3, 5-(3-(1H-indazol-6-yl)-1,4-dihydrothieno[2′,3′:4,5]cyclopenta[1,2-c]pyrazol-6-yl)pyridin-2-amine]	1 to 10 nM		> 50%
Cc1cc(CN2CCOCC2)ccc1-c1cc2c(s1)Cc1c(-c3ccc4cnn(C)c4c3)n[nH]c1-2 [Compound 91, 4-(3-methyl-4-(3-(1-methyl-1H-indazol-6-yl)-1,4-dihydrothieno [2′,3′:4,5]cyclopenta [1,2-c]pyrazol-6-yl)benzyl)morpholine]	30 to 100 nM	1 to 10 nM	
COc1ccc(-c2cc3c(s2)Cc2c(-c4ccc5cn[nH]c5c4)n[nH]c2-3)cn1 [Compound 2, 3-(1H-indazol-6-yl)-6-(6-methoxypyridin-3-yl)-1,4-dihydrothieno[2′,3′:4,5] cyclopenta[1,2-c]pyrazole]	10 to 30 nM		> 50%
CN1CCN(c2ccc(-c3cc4c(s3)Cc3c(-c5ccc6cnn(C)c6c5)n[nH]c3-4)cn2)CC1 [Compound 85, 3-(1-methyl-1H-indazol-6-yl)-6-(6-(4-methyl-piperazin-1-yl)pyridin-3-yl)-1,4-dihydrothieno [2′,3′:4,5]cyclopenta [1,2-c]pyrazole]	1 to 10 nM	< 1 nM	
COc1ccc(-c2cc3c(s2)Cc2c(-c4ccc5cnn(C)c5c4)n[nH]c2-3)cn1 [Compound 4, 6-(6-methoxypyridin-3-yl)-3-(1-methyl-1H-indazol-6-yl)-1,4-dihydrothieno [2′,3′:4,5]cyclopenta[1,2-c] pyrazole]	10 to 30 nM	1 to 10 nM	
COc1ccc(-c2cc3c(s2)Cc2c(-c4ccc5[nH]ncc5c4)n[nH]c2-3)cn1 [Compound 1, 3-(1H-indazol-5-yl)-6-(6-methoxypyridin-3-yl)-1,4-dihydrothieno[2′,3′:4,5] cyclopenta[1,2-c]pyrazole]	10 to 30 nM		> 50%
CN(C)Cc1ccc(-c2cc3c(s2)Cc2c(-c4ccc5cnn(C)c5c4)n[nH]c2-3)cc1 [Compound 94, N,N-dimethyl-1-(4-(3-(1-methyl-1H-indazol-6-yl)-1,4-dihydrothieno [2′,3′:4,5]cyclopenta [1,2-c]pyrazol-6-yl)phenyl)methanamine]	1 to 10 nM	< 1 nM	> 50%
CN1CCN(c2cc(-c3cc4c(s3)Cc3c(-c5ccc6cnn(C)c6c5)n[nH]c3-4)ccn2)CC1 [Compound 87, 3-(1-methyl-1H-indazol-6-yl)-6-(2-(4-methyl-piperazin-1-yl)pyridin-4-yl)-1,4-dihydrothieno [2′,3′:4,5]cyclopenta [1,2-c]pyrazole]	1 to 10 nM	< 1 nM	
Cn1ncc2ccc(-c3n[nH]c4c3Cc3sc(-c5ccc(CN6CCOCC6)c(F)c5F)cc3-4)cc21 [Compound 88, 4-(2,3-difluoro-4-(3-(1-methyl-1H-indazol-6-yl)-1,4-dihydrothieno [2′,3′:4,5]cyclopenta [1,2-c]pyrazol-6-yl)benzyl)morpholine]	30 to 100 nM	1 to 10 nM	
Cn1ncc2ccc(-c3n[nH]c4c3Cc3sc(-c5ccnc(Cl)c5)cc3-4)cc21 [Compound 86, 6-(2-chloropyridin-4-yl)-3-(1-methyl-1H-indazol-6-yl)-1,4-dihydrothieno [2′,3′:4,5]cyclopenta [1,2-c]pyrazole]	10 to 30 nM	1 to 10 nM	
CN1CCN(Cc2ccc(-c3cc4c(s3)Cc3c(-c5ccc6cnn(C)c6c5)n[nH]c3-4)cc2)CC1 [Compound 84, 3-(1-methyl-1H-indazol-6-yl)-6-(4-((4-methylpiperazin-1-yl)methyl)phenyl)-1,4-dihydrothieno [2′,3′:4,5]cyclopenta [1,2-c]pyrazole]	1 to 10 nM	< 1 nM	> 50%
